Measured values reported in patent US7169955B2, “Perfluoroisopropylbenzene derivative” (Nihon Nohyaku Co., Ltd., priority 2000, dated 2007).

Key:
Type in all cases: in vivo
wheat [1] = assay: Phytotoxicity on upland crop plants, pre-emergence test; conditions: upland pre-emergence spray, 5 kg/ha, 14 days after treatment
Description: (§1) Polyethylene-made vats having a size of 10 cm (length)×20 cm (width)×5 cm (height) were filled with soil, sown with seeds of Arabidopsis thialiana, bent grass (Agrostis spp.) and monochoria (Monochoria veginalis), and with seeds of wheat and soybean plant as upland crop plants, and then covered with soil. Then, a liquid preparation of an agent comprising a prescribed concentration of a compound obtained in Reference Example 1 as active ingredient was sprayed.
(§2) Fourteen days after the treatment, the herbicidal effect was investigated, from which weed-killing rate was calculated in the same manner as in Reference Example 2, and the herbicidal effect was judged.
(§3) At the same time, phytotoxicity on soybean plant and wheat was investigated and judged according to the criterion mentioned in Reference Example 1.

soybean plant [2] = assay: as above; conditions: upland pre-emergence spray, 5 kg/ha, 14 days after treatment
Description: as §1, §2, §3

[3] = test system: monochoria (Monochoria veginalis); assay: Herbicidal effect on upland weeds pre-emergence; conditions: upland pre-emergence spray, 5 kg/ha, 14 days after treatment
Description: as §1, §2

[4] = test system: bent grass (Agrostis spp.); assay: Herbicidal effect on upland weeds pre-emergence; conditions: upland pre-emergence spray, 5 kg/ha, 14 days after treatment
Description: as §1, §2

Arabidopsis thaliana [5] = assay: Herbicidal effect on upland weeds pre-emergence; conditions: upland pre-emergence spray, 5 kg/ha, 14 days after treatment
Description: as §1, §2

[6] = test system: barnyard grass (Echinochloa crus-galli Beauv.); assay: Herbicidal effect on paddy field weeds pre-emergence; conditions: paddy soil treatment pre-emergence, 5 kg/ha, 21 days after treatment
Procedure: (§4) Soil was filled into 1/10000 are pots and brought into a state of paddy field, in which seeds of barnyard grass (Echinochloa crus-galli Beauv.) and bulrush (Scirpus juncoides Roxb.) were made to be before germination. The soil in the pots were treated with a solution containing a predetermined dosage of a chemical agent comprising a compound obtained in Reference Example 1 as the active ingredient.
(§5) Twenty one days after the treatment, the herbicidal effect was investigated, the result was compared with that in untreated plot to calculate the weedkilling rate, and the herbicidal effect was judged according to the following criterion.

[7] = test system: bulrush (Scirpus juncoides Roxb.); assay: as above; conditions: paddy soil treatment pre-emergence, 5 kg/ha, 21 days after treatment
Procedure: as §4, §5

[8] = test system: monochoria (Monochoria veginalis); assay: Herbicidal effect on upland weeds after emergence; conditions: after emergence (1 to 2 leaved stage) spray, 5 kg/ha, 14 days after treatment
Description: (§6) Polyethylene-made vats having a size of 10 cm (length)×20 cm (width)×5 cm (height) were filled with soil, sown with the seeds of the upland weeds mentioned below and with seeds of soybean plant and wheat as upland crop plants, and then covered with soil. The plants were made to grow up until they reached the 1 to 2 leaved stage, after which an agent comprising a prescribed concentration of a compound obtained in Reference Example 1 as active ingredient was sprayed.
(§7) Fourteen days after the treatment, the herbicidal effect was investigated, from which weed-killing rate was calculated in the same manner as in Reference Example 2 and the results were judged. At the same time, phytotoxicity on soybean plant and wheat was investigated and judged in the same manner as in Reference Example 2.

[9] = test system: bent grass (Agrostis spp.); assay: Herbicidal effect on upland weeds after emergence; conditions: after emergence (1 to 2 leaved stage) spray, 5 kg/ha, 14 days after treatment
Description: as §6, §7

Arabidopsis thaliana [10] = assay: Herbicidal effect on upland weeds after emergence; conditions: after emergence (1 to 2 leaved stage) spray, 5 kg/ha, 14 days after treatment
Description: as §6, §7

wheat [11] = assay: Phytotoxicity on upland crop plants, after-emergence test; conditions: after emergence spray, 5 kg/ha, 14 days after treatment
Description: as §6, §7

soybean plant [12] = assay: as above; conditions: after emergence spray, 5 kg/ha, 14 days after treatment
Description: as §6, §7

paddy rice = assay: Phytotoxicity on paddy rice (paddy field pre-emergence test); conditions: 5 kg/ha, 21 days after treatment
Procedure: as §4, §5
At the same time, phytotoxicity on paddy rice was investigated, and judged according to the following criterion.

CN(C)C(=O)Nc1ccc(C(F)(C(F)(F)F)C(F)(F)F)cc1 [Reference Example 1, 1,1-dimethyl-3-(4-heptafluoroisopropylphenyl)urea]
phytotoxicity (rating) (wheat [1]): 0 (Weedkilling rate is 0–20 (No phytotoxicity).)
phytotoxicity (rating) (soybean plant [2]): 0 (Weedkilling rate is 0–20 (No phytotoxicity).)
herbicidal effect (rating) [3]: 5 (Weedkilling rate is 100%.)
herbicidal effect (rating) [4]: 4 (Weedkilling rate is 90–99%.)
herbicidal effect (rating) (Arabidopsis thaliana [5]): 5 (Weedkilling rate is 100%.)
herbicidal effect (rating) [6]: 4 (Weedkilling rate is 90–99%.)
herbicidal effect (rating) [7]: 2 (Weedkilling rate is 40–69%.)
herbicidal effect (rating) [8]: 3 (Weedkilling rate is 70–89%.)
herbicidal effect (rating) [9]: 3 (Weedkilling rate is 70–89%.)
herbicidal effect (rating) (Arabidopsis thaliana [10]): 5 (Weedkilling rate is 100%.)
phytotoxicity (rating) (wheat [11]): 0 (Weedkilling rate is 0–20 (No phytotoxicity).)
phytotoxicity (rating) (soybean plant [12]): 0 (Weedkilling rate is 0–20 (No phytotoxicity).)
phytotoxicity (rating) (paddy rice): 0 (Weedkilling rate is 0–20 (No phytotoxicity).)
